Source: patent publication US20090155440A1, “Salt Enhancing Compounds and Use” (GIVAUDAN SA, priority 2005, published 2009)

Legend:
Format in all cases: in vivo
sensory panel [1] = assay: Sensory triangle test in chicken broth, Examples 3a and 3b; settings: for Sensory results (compared to 1): chicken broth, Example 3b; for Kokumi Intensity (0-5): scale 0 to 5, 5 most intensive, reference 2
Method: (§1) Unless otherwise indicated, all sensory tests are triangle tests and are performed according to the guidelines in “Amtliche Sammlung von Untersuchungsverfahren nach § 35 LMBG (Lebensmittel-und Bedarfsgegenständegesetz)”; L 00.90 7, Untersuchung von Lebensmitteln, Sensorische Prüfverfahren, Dreiecksprüfung (Übernahme der gleichnahmigen Deutschen Norm DIN ISO 4120, Ausgabe Januar 1995), as follows:
The sensory panel is trained to evaluate the taste of aqueous solutions (4 ml each) of the following standard taste compounds by using a triangle test as described in the literature (Wieser and Belitz, Z. Lebensm. Unters. Forsch., 1975,159, 65-72): sucrose (40 mmol/L) for sweet taste; citric acid (5 mmol/L) for sour taste; NaCl (12 mmol/L) for salty taste; caffeine (2 mmol/L) for bitter taste; and monosodium glutamate (MSG; 6 mmol/L) for umami taste. For kokumi taste, a solution of glutathione (10 mmol/L) in diluted chicken broth concentrate (Goumet Bouillon Huhn, Maggi, Singen, Germany; 3 g/100 g bottled water (Evian®)) is prepared and compared to the taste of chicken broth with no glutathione added.
(§2) For recording the taste profiles, samples are prepared as indicated in the examples below. Taste profiles of samples are determined in a triangle test in three different sessions. Panellists refrain from eating or drinking for at least 1 hour prior to the session. At the start of the session and before each trial, the subject rinsed with water and expectorated. The participants receive a set of two blanks and one taste sample. Liquid samples are swirled around in the mouth briefly and expectorated. Solid samples are chewed for 20 seconds and then expectorated. […] Each sample with additive is compared to two reference samples without additives. Kokumi intensity is rated from 0-5 according to a scale from 0 to 5 (with 5 most intensive). The additive is added to a consumable and the sample is homogenised. The samples are presented to the sensory panel directly after homogenisation. The sensory panel included 6-8 trained individuals with exception of example 4, here the panel consists of 10 trained individuals.
Chicken broth is prepared by diluting 3 g of a chicken broth concentrate (Gourmet Bouillon Huhn, Nestle) with 100 ml water. Additives are added as specified in table below in a concentration of 10 mmol/L. The pH-value of all samples is adjusted to 6.5 using formic acid (0.1 mol/L) or sodium hydroxide (0.1 mol/L).
Kokumi intensity is rated according to a scale from 0 to 5 (with 5 most intensive). […] The additive is added to a consumable and the sample is homogenised.
The samples are presented to the sensory panel directly after homogenisation. The sensory panel included 8 trained individuals.
The samples are tested as described above in example 3a.

sensory panel [2] = assay: Sensory test in cream cheese, Example 4; settings: for Sensory results (compared to 1): versus reference without additives; for Sensory results compared to 2: versus NaCl Reference (2000 ppm)
Method: as §1, §2
Samples are compared by a panel of 10 trained panelists.

sensory panel [3] = assay: Isointensity triangle test, S-substituted peptides in sodium salt solution (30 mmol/L NaCl), Example 1a; settings: compound 10 mmol/L in aqueous NaCl 30 mmol/L, pH 6.5; reference without additive 30 mmol/L
Method: Unless otherwise indicated, all sensory tests are triangle tests and are performed according to the guidelines in “[…] von […]-und Bedarfsgegenständegesetz)”; L 00.90 7, Untersuchung von Lebensmitteln, Sensorische […] Deutschen Norm DIN ISO 4120, Ausgabe Januar 1995), as follows: The sensory panel is trained to evaluate the taste of aqueous solutions (4 ml each) of the following standard taste compounds by using a triangle test as described in the literature ([…] and Belitz, Z. Lebensm. Unters. Forsch., 1975,159, 65-72): sucrose (40 mmol/L) for sweet taste; citric acid (5 mmol/L) for sour taste; […] All sensory analyses are performed in a sensory panel room at 22-25° C. over three different sessions by a trained panel of 8 to 10 individuals. For recording the taste profiles, samples are prepared as indicated in the examples below. Taste profiles of samples are determined in a triangle test in three different sessions. Panellists refrain from eating or drinking for at least 1 hour prior to the session. At the start of the session and before each trial, the subject rinsed with water and expectorated. The participants receive a set of two blanks and one taste sample. Liquid samples are swirled around in the mouth briefly and expectorated. Solid samples are chewed for 20 seconds and then expectorated. […] Each sample with additive is compared to two reference samples without additives. Kokumi intensity is rated from 0-5 according to a scale from 0 to 5 (with 5 most intensive). The additive is added to a consumable and the sample is homogenised. The samples are presented to the sensory panel directly after homogenisation. The sensory panel included 6-8 trained individuals with exception of example 4, here the panel consists of 10 trained individuals. The compounds listed in the table below are dissolved in an aqueous solution (pH 6.5) of NaCl (30 mmol/L).

sensory panel [4] = assay: Isointensity triangle test in sodium and potassium salt solution (30 mmol/L NaCl, 15 mmol/L KCl), Example 1b; settings: NaCl 30 mmol/L + KCl 15 mmol/L, salt enhancer 10 mmol/L; without enhancer 40 mmol/L
Method: Unless otherwise indicated, all sensory tests are triangle tests and are performed according to the guidelines in “[…] von […]-und Bedarfsgegenständegesetz)”; L 00.90 7, Untersuchung von Lebensmitteln, Sensorische […] Deutschen Norm DIN ISO 4120, Ausgabe Januar 1995), as follows: For recording the taste profiles, samples are prepared as indicated in the examples below. Taste profiles of samples are determined in a triangle test in three different sessions. Panellists refrain from eating or drinking for at least 1 hour prior to the session. At the start of the session and before each trial, the subject rinsed with water and expectorated. The participants receive a set of two blanks and one taste sample. Liquid samples are swirled around in the mouth briefly and expectorated. Solid samples are chewed for 20 seconds and then expectorated. […] Each sample with additive is compared to two reference samples without additives. Kokumi intensity is rated from 0-5 according to a scale from 0 to 5 (with 5 most intensive). The additive is added to a consumable and the sample is homogenised. The samples are presented to the sensory panel directly after homogenisation. […] KCl is often used in small concentrations to reduce sodium without loss of salty taste. […] For the samples compared and the results see the table below.

sensory panel [5] = assay: Sensory test in ketchup, Example 5; settings: additive 500 ppm
Method: as §1
as §2, with “The sensory panel included 6-8 trained individuals with exception of example 4, here the panel consists of 10 trained individuals.” left out

## [Cl-].[Na+] [NaCl, sodium chloride, reference compound]
Sensory panel [1]; additive 2000 ppm
  Sensory results (compared to 1): More salty
Sensory panel [2]; additive 2000 ppm
  Sensory results (compared to 1): More salty

## N[C@@H](CCC(=O)N[C@@H](CSCCC(=O)O)C(=O)NCC(=O)O)C(=O)O [β-S-(carboxyethyl) γ-L-glutamyl-L-cysteinyl-glycine]
Sensory panel [3]
  concentration of an isointense NaCl-solution: 38 mmol/L

## N[C@@H](CCC(=O)N[C@@H](CS)C(=O)NCC(=O)O)C(=O)O [GSH reduced, glutathione]
Sensory panel [1]; chicken broth pH 6.5, additive 10 mmol/L
  Kokumi Intensity (0-5): 3.5

## N[C@@H](CCC(=O)N[C@@H](CSC(CC(=O)O)C(=O)O)C(=O)O)C(=O)O (stereo partly drawn) [S-(α,β-dicarboxyethyl) γ-L-glutamyl-cysteine]
Sensory panel [3]
  concentration of an isointense NaCl-solution: 60 mmol/L
Sensory panel [2]; additive 1000 ppm
  Sensory results compared to 2: greater effect on saltiness than the addition of NaCl

## N[C@@H](CCC(=O)N[C@@H](CSC(CCC(=O)O)C(=O)O)C(=O)NCC(=O)O)C(=O)O (stereo partly drawn) [β-S-(α,γ-dicarboxypropyl) γ-L-glutamyl-L-cysteinyl-glycine]
Sensory panel [3]
  concentration of an isointense NaCl-solution: 48 mmol/L

## N[C@@H](CSC(CC(=O)O)C(=O)O)C(=O)O (stereo partly drawn) [S-(α,β-dicarboxyethyl)-L-cysteine, S-(α,β-dicarboxyethyl) cysteine]
Sensory panel [3]
  concentration of an isointense NaCl-solution: 40 mmol/L
Sensory panel [1]; additive 400 ppm
  Sensory results (compared to 1): More salty
Sensory panel [2]; additive 1000 ppm
  Sensory results compared to 2: Slightly more salty
  Sensory results (compared to 1): More salty

## N[C@@H](CCC(=O)O)C(=O)[O-].[Na+] [MSG, monosodium glutamate]
Sensory panel [1]; additive 2000 ppm
  Sensory results (compared to 1): Higher umami intensity

## COC(=O)[C@@H](N)CSC(CC(=O)O)C(=O)O (stereo partly drawn) [S-(α,β-dicarboxyethyl) cysteine methyl ester]
Sensory panel [3]
  concentration of an isointense NaCl-solution: 38 mmol/L

## CCOC(=O)C(CSC(CC(=O)O)C(=O)O)NC(=O)CC[C@H](N)C(=O)O (stereo partly drawn) [S-(α,β-dicarboxyethyl) γ-L-glutamyl-cysteine ethyl ester]
Sensory panel [3]
  concentration of an isointense NaCl-solution: 48 mmol/L

## CCOC(=O)[C@@H](N)CSC(CC(=O)O)C(=O)O (stereo partly drawn) [S-(α,β-dicarboxyethyl) cysteine ethyl ester]
Sensory panel [3]
  concentration of an isointense NaCl-solution: 42 mmol/L

## N[C@@H](CCC(=O)N[C@@H](CSC(CC(=O)O)C(=O)O)C(=O)NCC(=O)O)C(=O)O (stereo partly drawn) [S-(α,β-dicarboxyethyl) γ-L-glutamyl-L-cysteinyl-glycine]
Sensory panel [3]
  concentration of an isointense NaCl-solution: 48 mmol/L
Sensory panel [4]
  concentration of an isointense NaCl-solution: 57 mmol/L
Sensory panel [1]; chicken broth pH 6.5, additive 400 ppm
  Kokumi Intensity (0-5): 3.5
Sensory panel [2]; additive 1000 ppm
  Sensory results compared to 2: greater effect on saltiness than the addition of NaCl
Sensory panel [5]
  Sensory results (compared to 1): Slightly more salty
